The text below walks through data of patent US8088817B2, “Pyrrole derivative having, as substituents, ureido group, aminocarbonly group and bicyclic group which may have substituent” (Santen Pharmaceutical Co., Ltd., priority 2008, dated 2012).

This assay has as its system TNF-α-induced IL-6 production in normal human skin fibroblast-derived CCD-1059Sk cells. The assay can be described thus: Test for measurement of inhibitory activity against TNF-α-induced IL-6 production in CCD-1059Sk cells (HTRF Human IL-6 kit). The format is cell-based. The conditions noted are these: test compound at 10 μM; TNF-α-stimulated CCD-1059Sk cells, 16 hours; inhibition ratio which is 100% or more is indicated to be 100%. How it is done:
1. Test for Measurement of Inhibitory Activity Against IL-6 Production
An inhibitory effect on TNF-α-induced IL-6 production in normal human skin fibroblast-derived CCD-1059Sk cells (ATCC No. CRL-2072) was evaluated. The amount of IL-6 was determined by the homogeneous time-resolved fluorescence method using HTRF™ Human IL-6 kit (Cat. No. 62IL6PEB, manufactured by CIS-Bio international, Inc.). Specific test methods will be described below.
(Preparation of Test Compound Solution)
After a test compound was dissolved in dimethyl sulfoxide, the resulting solution was diluted with D-MEM medium containing 0.1% heat-inactivated fetal bovine serum, 0.1 mM MEM non-essential amino acid solution, 100 U/mL penicillin and 100 μg/mL streptomycin (hereinafter referred to as “medium”), whereby a 40 μM test compound solution was prepared.
(Test Method and Measurement Method)
1) CCD-1059Sk cells prepared at a density of 3×10^5 cells/mL were inoculated in a 384-well plate in an amount of 10 μL per well such that the cell density was 3×10^3 cells/well.
2) After the plate was incubated at 37° C. for several hours in a CO2 incubator, 5 μL of the test compound solution was added to each well.
3) After the plate was incubated at 37° C. for 1 hour in a CO2 incubator, 5 μL of a 40 ng/mL TNF-α solution was added to each well.
4) After the plate was incubated at 37° C. for 16 hours in a CO2 incubator, 10 μL of a cryptate-labeled anti-IL-6 antibody and an XL665-labeled anti-IL-6 antibody containing potassium fluoride were added to each well.
5) After the plate was incubated at room temperature for several hours, a fluorescence intensity ratio (665 nm/620 nm) was determined for each well using a multimode plate reader Analyst™ HT (manufactured by Molecular Device Corporation) and Criterion Host software version 2.00 (manufactured by Molecular Device Corporation), and then, the amount of IL-6 was calculated.
6) The same procedures as in the above 1) to 5) were performed except that 0.4% dimethyl sulfoxide was added in place of the test compound, and the obtained result was designated as the control.
7) The same procedures as in the above 1) to 5) were performed except that 0.4% dimethyl sulfoxide and the medium were added in place of the test compound and the TNF-α solution, respectively, and the obtained result was designated as the background.
(Calculation Formula of IL-6 Production Inhibition Ratio)
An IL-6 production inhibition ratio (%) was calculated from the following equation. IL-6 Production Inhibition Ratio(%)=100×{1−[(Amount of IL-6 for Test Compound)−(Amount of IL-6 for Background)]/[(Amount of IL-6 for Control)−(Amount of IL-6 for Background)]} (Evaluation Results)
In general terms: TR-FRET usually uses a lanthanide donor and a delayed reading to cut background.
In the case of `NC(=O)Nc1[nH]c(-c2ccc3ccccc3c2)cc1C(N)=O` [Compound No. 1-1, 2-Aminocarbonylamino-5-(2-naphthyl)pyrrole-3-carboxamide], the “IL-6 production inhibition ratio (%)” value came to 90%.

Turning to `NC(=O)Nc1[nH]c(-c2cc3ccccc3o2)cc1C(N)=O` [Compound No. 1-5, 2-Aminocarbonylamino-5-(benzofuran-2-yl)pyrrole-3-carboxamide], the “IL-6 production inhibition ratio (%)” value turned out to be 98%.

Regarding `NC(=O)Nc1[nH]c(-c2ccc3sccc3c2)cc1C(N)=O` [Compound No. 1-6, 2-Aminocarbonylamino-5-(benzothiophen-5-yl)pyrrole-3-carboxamide], the “IL-6 production inhibition ratio (%)” value was determined as 95%.

With `NC(=O)Nc1[nH]c(-c2ccc3occc3c2)cc1C(N)=O` [Compound No. 1-8, 2-Aminocarbonylamino-5-(benzofuran-5-yl)pyrrole-3-carboxamide], the “IL-6 production inhibition ratio (%)” value was found to be 86%.

With `NC(=O)Nc1[nH]c(-c2cccc3c2OCCO3)cc1C(N)=O` [Compound No. 1-12, 2-Aminocarbonylamino-5-(2,3-dihydro-1,4-benzodioxin-5-yl)pyrrole-3-carboxamide], the “IL-6 production inhibition ratio (%)” value is recorded as 97%.

As for `Cc1c(-c2cc(C(N)=O)c(NC(N)=O)[nH]2)sc2ccccc12` [Compound No. 1-15, 2-Aminocarbonylamino-5-(3-methylbenzothiophen-2-yl)pyrrole-3-carboxamide], the “IL-6 production inhibition ratio (%)” value was found to be 98%.

Regarding `NC(=O)Nc1[nH]c(-c2cccc3c2OCC3)cc1C(N)=O` [Compound No. 3-1, 2-Aminocarbonylamino-5-(2,3-dihydrobenzofuran-7)pyrrole-3-carboxamide], the “IL-6 production inhibition ratio (%)” value is at least 100%.
